The source of these data is patent US9957251B2 (Takeda Pharmaceutical Company Limited, priority 2014, dated 2018).

Experiment [1] has as its system human multiple myeloma RPMI8226 cells. Put plainly: Inhibitory activity against human multiple myeloma RPMI8226 cell growth (CellTiter-Glo). It counts as cell-based. Conditions: 1 μM of the test compound, cultured for 8 days; for inhibition at 1 µM: Homo sapiens, RPMI-8226, 192 h, read-out: Percent inhibition of RPMI8226 cell growth (%). How it is done: The compound of the present invention was evaluated for its inhibitory activity against human multiple myeloma RPMI8226 cell growth by the following method.
A suspension of human multiple myeloma RPMI8226 cells (purchased from the Health Protection Agency) was inoculated at 40 μL (300 cells/well) to a 384-well plate and cultured at 37° C. for 1 day in a 5% CO2 incubator. After the culture, each test compound solution was added thereto at a test concentration of 1 μM using TECAN D300, and the cells were further cultured for 8 days. After the culture, CellTiter-Glo™ Luminescent Cell Viability Assay reagent (Promega) was added at 40 μL/well to a 384-well plate, and the amount of luminescence was measured using a luminometer. Inhibitory activity against human multiple myeloma RPMI8226 cell growth (percent inhibition (%)) of the test compound was calculated according to the following formula, which is based on the hypothesis that the amount of residual ATP reflects the number of cells. In this formula, 100% control represents the amount of luminescence from a well with only 0.1% DMSO added. Percent inhibition (%)=(1−(amount of luminescence of the test compound)÷(100% control))×100
A general note: ATP-based viability assays read luminescence as a measure of living cells.

Another experiment deals with T1, CDK8/CycC (Homo sapiens, UniProt P49336).
T1 construct: purchased Carna Biosciences
T1 sequence (P49336 whole entry): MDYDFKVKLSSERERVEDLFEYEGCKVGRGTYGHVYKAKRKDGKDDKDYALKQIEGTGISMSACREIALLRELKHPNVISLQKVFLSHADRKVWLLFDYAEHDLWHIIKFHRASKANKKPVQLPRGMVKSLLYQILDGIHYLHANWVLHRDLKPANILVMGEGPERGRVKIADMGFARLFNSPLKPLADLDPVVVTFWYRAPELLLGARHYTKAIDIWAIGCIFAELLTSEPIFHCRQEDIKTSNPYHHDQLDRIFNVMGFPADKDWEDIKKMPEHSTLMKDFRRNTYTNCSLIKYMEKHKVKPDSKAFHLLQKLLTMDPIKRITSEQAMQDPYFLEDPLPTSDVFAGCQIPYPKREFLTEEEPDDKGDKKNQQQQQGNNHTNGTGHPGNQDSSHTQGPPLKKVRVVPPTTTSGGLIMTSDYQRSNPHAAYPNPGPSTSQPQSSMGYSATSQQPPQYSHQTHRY
T1 sequence (P24863 whole entry partner): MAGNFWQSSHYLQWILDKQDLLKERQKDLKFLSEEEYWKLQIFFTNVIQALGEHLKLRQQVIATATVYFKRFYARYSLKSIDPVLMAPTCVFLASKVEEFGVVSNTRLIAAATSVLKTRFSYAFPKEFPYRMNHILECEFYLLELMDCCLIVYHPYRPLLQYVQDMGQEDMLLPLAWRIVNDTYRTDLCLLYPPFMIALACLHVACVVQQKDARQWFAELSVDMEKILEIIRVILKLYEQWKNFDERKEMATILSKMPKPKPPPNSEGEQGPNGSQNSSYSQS
The experiment is described as follows: CDK8 inhibitory activity (TR-FRET, Kinase Tracer-236 displacement). It counts as binding. Conditions: 1 μM of the test compound; for inhibition at 1 µM: read-out: Percent inhibition of CDK8 activity (%). How it is done: (§1) The compound of the present invention was evaluated for its CDK8 inhibitory activity and CDK19 inhibitory activity by the following method. […] The primary diluted solution was dispensed in the amount of 2 μL/well to a 384-well plate, and then, a mixed solution of Eu^3+ Cryptate conjugated mouse monoclonal antibody anti-glutathione S-transferase (Cisbio) diluted 267-fold with an assay buffer and 60 nM Kinase Tracer-236 (Life technologies) was added thereto at 2 μL/well. After the addition, each kinase solution (84 ng/mL CDK8/CycC (Carna Biosciences) diluted with an assay buffer used for CDK8 inhibitory activity measurement, and 87 ng/mL CDC2L6/CycC (Carna Biosciences) diluted with an assay buffer used for CDK19 inhibitory activity measurement) was further added thereto at 2 μL/well. After the addition, the plate was left standing at room temperature for 1 hour, and then, the fluorescence intensity (excitation wavelength 320 nm, fluorescence wavelength 615 nm, 665 nm, delay time 50 μsec) was measured using an EnVision plate reader (PerkinElmer).
For orientation: Time-resolved FRET reads energy transfer from a long-lived donor to a nearby acceptor.

The next experiment concerns the target T2, CDK19 (CDC2L6/CycC) (Homo sapiens, UniProt Q9BWU1).
T2 construct: purchased Carna Biosciences
Put plainly: CDK19 inhibitory activity (TR-FRET, Kinase Tracer-236 displacement). Conditions: 1 μM of the test compound; for inhibition at 1 µM: read-out: Percent inhibition of CDK19 activity (%). It counts as binding. How it is done: as §1

T2 sequence (Q9BWU1 whole entry): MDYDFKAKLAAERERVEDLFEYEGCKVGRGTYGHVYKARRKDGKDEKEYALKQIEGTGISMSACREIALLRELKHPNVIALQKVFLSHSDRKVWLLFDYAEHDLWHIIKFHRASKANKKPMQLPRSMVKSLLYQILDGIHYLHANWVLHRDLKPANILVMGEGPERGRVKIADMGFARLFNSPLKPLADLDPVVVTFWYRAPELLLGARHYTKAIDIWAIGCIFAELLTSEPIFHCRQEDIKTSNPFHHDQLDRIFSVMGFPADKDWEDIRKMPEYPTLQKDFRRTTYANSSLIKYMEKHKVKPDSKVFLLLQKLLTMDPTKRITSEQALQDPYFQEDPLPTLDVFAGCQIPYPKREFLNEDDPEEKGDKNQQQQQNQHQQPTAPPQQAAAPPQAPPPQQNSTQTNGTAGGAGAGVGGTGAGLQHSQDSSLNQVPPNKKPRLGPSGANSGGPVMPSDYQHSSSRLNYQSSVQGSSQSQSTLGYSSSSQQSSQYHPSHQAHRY
T2 sequence (P24863 whole entry partner): as the sequence (P24863 whole entry partner) above

Turning to `Cn1cc(-c2ccncc2/C=C/C(=O)Nc2ccc(CN3CCOCC3)c(F)c2)cn1` [Example 249, (2E)-N-(3-fluoro-4-(morpholin-4-ylmethyl)phenyl)-3-(4-(1-methyl-1H-pyrazol-4-yl)pyridin-3-yl)acrylamide], the results for the inhibition at 1 µM (in experiment [1]; on CDK8/CycC; on CDK19 (CDC2L6/CycC)) were 62%, 99% and 97%, respectively.

In the case of `COC1CN(Cc2ccc(NC(=O)/C=C/c3cncc(F)c3-c3cnn(C4CC4)c3)c(F)c2)C1` [Example 343, (2E)-3-(4-(1-Cyclopropyl-1H-pyrazol-4-yl)-5-fluoropyridin-3-yl)-N-(2-fluoro-4-((3-methoxyazetidin-1-yl)methyl)phenyl)acrylamide], the values for the inhibition at 1 µM (in experiment [1]; on CDK8/CycC; at CDK19 (CDC2L6/CycC)) were 63%, 103% and 96%, respectively.

As to `Cn1cc(-c2ccncc2/C=C/C(=O)Nc2ccc3c(c2)CCCC3=O)cn1` [Example 191, (2E)-3-(4-(1-methyl-1H-pyrazol-4-yl)pyridin-3-yl)-N-(5-oxo-5,6,7,8-tetrahydronaphthalen-2-yl)acrylamide], the inhibition (usually the change of the read-out against control, counted positive when it falls) at 1 µM in experiment [1] worked out at 56%; at CDK8/CycC, 96%; on CDK19 (CDC2L6/CycC) it was 92%.

For `O=C(/C=C/c1cnccc1-c1cnn(CC2(F)CC2)c1)Nc1ccc(CN2CCOCC2)cc1` [Example 288, (2E)-3-(4-(1-((1-Fluorocyclopropyl)methyl)-1H-pyrazol-4-yl)pyridin-3-yl)-N-(4-(morpholin-4-ylmethyl)phenyl)acrylamide], the inhibition at 1 µM was 57% in experiment [1], 99% at CDK8/CycC and 101% at CDK19 (CDC2L6/CycC).

As to `Cn1cc(-c2c(F)cncc2/C=C/C(=O)Nc2ccc3c(c2)CN(CC(F)(F)F)C3)cn1` [Example 327, (2E)-3-(5-Fluoro-4-(1-methyl-1H-pyrazol-4-yl)pyridin-3-yl)-N-(2-(2,2,2-trifluoroethyl)-2,3-dihydro-1H-isoindol-5-yl)acrylamide], the figures for the inhibition at 1 µM (in experiment [1]; at CDK8/CycC; on CDK19 (CDC2L6/CycC)) were 56%, 106% and 104%, respectively.

As for `Cn1cc(-c2c(F)cncc2/C=C/C(=O)Nc2ccc3c(c2)CN(CC(C)(F)F)C3)cn1` [Example 351, (2E)-N-(2-(2,2-difluoropropyl)-2,3-dihydro-1H-isoindol-5-yl)-3-(5-fluoro-4-(1-methyl-1H-pyrazol-4-yl)pyridin-3-yl)acrylamide], the inhibition at 1 µM in experiment [1] turned out to be 63%; on CDK8/CycC it was 106%; at CDK19 (CDC2L6/CycC), 100%.

With `O=C(/C=C/c1cnccc1-c1cnn(C2CC2)c1)Nc1ccc(CN2CC3(COC3)C2)cc1` [Example 308, (2E)-3-(4-(1-cyclopropyl-1H-pyrazol-4-yl)pyridin-3-yl)-N-(4-(2-oxa-6-azaspiro [3.3]hept-6-ylmethyl)phenyl)acrylamide], the inhibition at 1 µM came out at 56% in experiment [1], 110% at CDK8/CycC and 98% on CDK19 (CDC2L6/CycC).

Regarding `Cn1cc(-c2ccncc2/C=C/C(=O)Nc2ccc(CNC3CC(F)(F)C3)cc2)cn1` [Example 89, (2E)-N-(4-(((3,3-difluorocyclobutyl)amino)methyl)phenyl)-3-(4-(1-methyl-1H-pyrazol-4-yl)pyridin-3-yl)acrylamide], the inhibition at 1 µM in experiment [1] was found to be 63%; on CDK8/CycC, 96%; on CDK19 (CDC2L6/CycC), 97%.

Consider `O=C(/C=C/c1cnccc1-c1cnn(C2CC2)c1)Nc1ccc(COC(F)F)cc1` [Example 292, (2E)-3-(4-(1-Cyclopropyl-1H-pyrazol-4-yl)pyridin-3-yl)-N-(4-((difluoromethoxy)methyl)phenyl)acrylamide], for which the inhibition at 1 µM came to 52% in experiment [1], 97% at CDK8/CycC and 93% on CDK19 (CDC2L6/CycC).

For `O=C(/C=C/c1cnccc1-c1cnn(C2CC2)c1)Nc1ccc(CN2CC(F)(F)C2)cc1` [Example 376, (2E)-3-(4-(1-Cyclopropyl-1H-pyrazol-4-yl)pyridin-3-yl)-N-(4-((3,3-difluoroazetidin-1-yl)methyl)phenyl)acrylamide hemifumarate], the “Percent inhibition of RPMI8226 cell growth (%)” value in experiment [1] (1 µM) is listed as 70%. Besides, the “Percent inhibition of CDK8 activity (%)” value at CDK8/CycC (1 µM) was found to be 99%. For the same compound, the “Percent inhibition of CDK19 activity (%)” value at CDK19 (CDC2L6/CycC) (1 µM) was determined as 100%.

For the compound `O=C(/C=C/c1cnccc1-c1cnn(C2CCC2)c1)Nc1ccc(CN2CCOCC2)cc1` [Example 258, (2E)-3-(4-(1-cyclobutyl-1H-pyrazol-4-yl)pyridin-3-yl)-N-(4-(morpholin-4-ylmethyl)phenyl)acrylamide], the inhibition at 1 µM in experiment [1] was 54%; at CDK8/CycC, 96%; at CDK19 (CDC2L6/CycC), 96%.

For `O=C(/C=C/c1cnccc1-c1cnn(CC2CC2)c1)Nc1ccc(CN2CCOCC2)cc1` [Example 45, (2E)-3-(4-(1-(Cyclopropylmethyl)-1H-pyrazol-4-yl)pyridin-3-yl)-N-(4-(morpholin-4-ylmethyl)phenyl)acrylamide], the inhibition at 1 µM in experiment [1] amounted to 55%; at CDK8/CycC, 98%; at CDK19 (CDC2L6/CycC), 99%.

Regarding `O=C(/C=C/c1cnccc1-c1cnn2ccccc12)Nc1ccc(CN2CCOCC2)cc1` [Example 101, (2E)-N-(4-(morpholin-4-ylmethyl)phenyl)-3-(4-(pyrazolo[1,5-a]pyridin-3-yl)pyridin-3-yl)acrylamide], the inhibition at 1 µM was 55% in experiment [1], 98% on CDK8/CycC and 97% at CDK19 (CDC2L6/CycC).

For the compound `COCCn1cnc2ccc(-c3ccncc3/C=C/C(=O)Nc3ccc(CN4CCOCC4)cc3)cc21` [Example 295, (2E)-3-(4-(1-(2-methoxyethyl)-1H-benzimidazol-6-yl)pyridin-3-yl)-N-(4-(morpholin-4-ylmethyl)phenyl)acrylamide], the inhibition at 1 µM is 62% in experiment [1], 103% at CDK8/CycC and 97% on CDK19 (CDC2L6/CycC).

As to `Cn1cc(-c2ccncc2/C=C/C(=O)Nc2ccc(CC(C)(C)O)cc2)cn1` [Example 123, (2E)-N-(4-(2-hydroxy-2-methylpropyl)phenyl)-3-(4-(1-methyl-1H-pyrazol-4-yl)pyridin-3-yl)acrylamide], the inhibition at 1 µM in experiment [1] stood at 62%; at CDK8/CycC, 99%; at CDK19 (CDC2L6/CycC), 101%.

On to `CC(c1ccc(NC(=O)/C=C/c2cnccc2-c2cnn(C)c2)cc1)N1CCOCC1` (stereo not drawn) [Example 43, (2E)-3-(4-(1-methyl-1H-pyrazol-4-yl)pyridin-3-yl)-N-(4-(1-(morpholin-4-yl)ethyl)phenyl)acrylamide], for which the figures for the inhibition at 1 µM (in experiment [1]; on CDK8/CycC; at CDK19 (CDC2L6/CycC)) were 57%, 96% and 98%, respectively.

For the compound `Cn1cc(-c2ccncc2/C=C/C(=O)Nc2ccc3c(c2)OCCO3)cn1` [Example 168, (2E)-N-(2,3-dihydro-1,4-benzodioxin-6-yl)-3-(4-(1-methyl-1H-pyrazol-4-yl)pyridin-3-yl)acrylamide], the inhibition at 1 µM in experiment [1] is 59%; on CDK8/CycC, 100%; on CDK19 (CDC2L6/CycC) it was 97%.

Take `COc1ncc(-c2ccncc2/C=C/C(=O)Nc2ccc(CN3CCOCC3)cc2F)s1` [Example 250, (2E)-N-(2-Fluoro-4-(morpholin-4-ylmethyl)phenyl)-3-(4-(2-methoxy-1,3-thiazol-5-yl)pyridin-3-yl)acrylamide]: the inhibition at 1 µM was 63% in experiment [1], 99% at CDK8/CycC and 96% on CDK19 (CDC2L6/CycC).
